We go through two compounds from patent publication US20060088545A1, “Use of inhibitors of the protease of the human immunodeficiency virus (hiv) to block cell migration and/or invasion, tissue infiltration and oedema for the therary of diseases associated therewith” (priority 2001, published 2006).

“Also recorded” adds a separate entry of the source.

One assay relates to KS cells. Description: KS cell adhesion to fibronectin. It is filed as cell-based, human.
The test system of the next assay is IL-1α. Description: IL-1α production by KS cells (ELISA). Type of assay: cell-based, human. The conditions noted are these: 0.1, 1 and 10 μM, 5 days + 24 hours. Here is the method: After 24 hours of incubation, the supernatants of the cultures were tested by ELISA (R & D Systems, Minneapolis, Minn., USA) to determine the quantity of IL-6 present in the medium. The quantity of IL-6 is expressed in pg/ml of supernatant. The same tests were carried out for bFGF, VEGF, IL-1α and IL-1β by means of commercial ELISA kits.
KS cells secrete cytokines with an inflammatory, oedemigenic, angiogenic and proliferative activity with autocrine and paracrine effects (Ensoli and Stürzl, 1998). These factors mediate all the processes required for KS-like lesions formation (angiogenesis, cellular proliferation and invasion, inflammatory Infiltration, oedema) and vascular permeability and oedema induced by KS cells in nude mice. […] The quantity of bFGF, VEGF, IL-1 and IL-6 was dosed with immuno-enzymatic trials in the supernatants of the KS cells after 24 hours of culture in the absence of serum and in the continuous presence of the two HIV-PI (ELISA). […] Furthermore IL-6 plays a key role in the multicentric Cstleman's diseases and in the growth of lymphomas (Tosato et al., 1993; Peterson and Frizzera, 1993; Asou et al., 1998; Ramsay et al., 1994), another type of tumour whose incidence is reduced in patients treated with HIV-PI (International Collaboration on HIV and Cancer 2000).

The test system of assay [1] is bFGF-induced angiogenic KS-like lesions. Description: bFGF-induced angiogenic KS-like lesions in nude mice. Type of assay: in vivo. The note with it: for No. of mice with macroscopic vascular lesions/No. of inoculated mice / mice with macroscopic vascular lesions (%): bFGF 1 μg in matrigel, indinavir 1.4 mg/day or saquinavir 1 mg/day, intragastric gavage, 7 days; for Tissue staining (area % ± SD) CD31 / Tissue staining (area % ± SD) FVIII-RA: bFGF 1 μg, lesional area stained. Here is the method:
The mice were then inoculated with bFGF (1 μg) or with its diluting buffer in the presence of matrigel (Kleiner et al., 1993; Ensoli et al., 1994a; Samaniego et al., 1998; Barillari et al., 1999a).
The mice were then sacrificed and the inoculation areas examined both macroscopically and microscopically for the presence of KS-like angioproliferative lesions (Kleiner et al., 1993; Ensoli et al., 1994a; Samaniego et al., 1998; Barillari et al., 1999a).
At the time of sacrifice, the inoculation sites were examined to check for the presence of macroscopic angioproliferative lesions and analyzed microscopically after haematoxilin & eosin (H&E) staining or frozen for histochemical analysis of endothelial the cell markers FVIII-RA and CD31. Here are listed the number (No.) of mice that developed lesions with respect to the number (No.) of mice inoculated, and the percentage (%) of mice that developed lesions. […] Angiogenesis was quantitated by determining the tissue area stained for FVIII-RA or CD31. Shown are the percentages [mean±standard deviations (SD)] of lesional area stained for FVIII-RA or CD31 that were quantitated as described below.
These doses correspond, respectively, to the whole dose, double or half the dose of HIV-PI used daily in patients infected with HIV (Deeks et al., 1997). […] The control animals were treated with the same volume of saline solution. On the third day the mice were inoculated subcutaneously at the level of the lower dorsal quadrant with 1 μg of recombinant bFGF (Roche, Mannheim, Germany) diluted in 0.2 ml of phosphate buffer (PBS)-0.1% bovine […] albumin (BSA) or with its re-suspending buffer, mixed with 0.2 ml of Matrigel (Collaborative Biomedical Products, Bedford, Mass.) prior to inoculation, as described previously (Ensoli et al., 1994a). Four days later the mice were sacrificed, the inoculation sites were examined to check for the presence of macroscopic KS-like angioproliferative lesions, and sections of tissue histologically examined after staining with H&E. For immunohistochemical analysis, frozen tissue sections were fixed with cold acetone and stained with rabbit anti-human FVIII-RA polyclonal antibodies (Ab) (Dako, Glostrup, Denmark; 1:2000 dilution) or anti-mouse CD31 rat monoclonal Ab (BD Biosciences; 1:1000 dilution). Digital images (200× magnification) were captured by a color CCD camera (Zeiss) and analyzed by acquiring 4-9 microscopic fields (about 0.15 mm^2 per field) corresponding to the whole histologic sections. Staining was quantitated by the KS300 (Zeiss) image analysis software and expressed as the percentage of positive area over the total tissue area.

Assay [2] deals with breast carcinoma cells (MDA-MB-468). The assay can be described thus: Cell growth assay of MDA-MB-468 cells. The conditions noted are these: 10 μM; 4 days. Type of assay: cell-based, human. As to the method: Shown is the result of a representative cell growth assay performed on the breast carcinoma cells. Human breast carcinoma cells (MDA-MB468; ATCC) were plated in triplicate (8×10^4 cells/well) in 12-well plates. […] Ensoli et al., 1994b): For all the in vitro studies HIV-PI as endotoxin-free pure powder (a kind gift of Merck Sharp & Dohme and Roche) were resuspended in distilled water. Assays were repeated at least three times.

Assay [3] has as its system myelo-monocytic leukaemia (U937) cells. Description: Tumour lesions induced by U937 cells in nude mice. Type of assay: in vivo. The conditions noted are these: 5×10^6 cells/site; daily treatment. As to the method:
The treatment with HIV-PI or saline solution continued until sacrifice. The size of the lesions present at the injection site was evaluated daily by caliper measurement. External lesion area was then calculated as the product of the two major lesion diameters. The mean size (cm^2) of the lesions present at the injection site is shown.
To determine whether HIV-PI could inhibit the growth of malignant solid and lymphoid tumours, nude mice were inoculated with hepato-carcinoma cells (SK-Hep-1), lung carcinoma cells (A549), breast adeno-carcinoma cells (MDA-MB-468), myelo-monocytic leukaemia cells (U937), and T lymhocytic leukaemia cells (Jurkat).

The subject of assay [4] is lung carcinoma (A549) cells. Description: Invasion assay of A549 cells in response to bFGF. The conditions noted are these: 0.1, 1 or 10 μM. It is filed as cell-based, human. As to the method: The invasion assays were performed in the Boyden chamber. Polycarbonate filters ([…]; Nucleoprobe, Cabin John, Md.) were coated first with collagen IV and then with Matrigel (Collaborative Biomedical Products) as described previously (Barillari et al., 1999b). […] Human recombinant bFGF (50 ng/ml) was placed in the lower compartment as chemo-attractant. […] Louis, Mo.). Ten random filter fields were counted by light microscopy as described previously (Barillari et al., 1999b).

Regarding `CC(C)(C)NC(=O)[C@@H]1CN(Cc2cccnc2)CCN1C[C@@H](O)C[C@@H](Cc1ccccc1)C(=O)N[C@H]1c2ccccc2C[C@H]1O` [Indinavir, indinavir], the “capability of the KS cells to adhere to a substrate of fibronectin” value in the assay with KS cells is reported as “do not inhibit”. Also, the “production of IL-1α by KS cells” value in the assay on IL-1α is reported as “inhibited”. Besides, the “production of IL-1α by KS cells” value in the assay with IL-1α (listed as indinavir) was “reduced”. In addition, in assay [1], the “No. of mice with macroscopic vascular lesions/No. of inoculated mice” value is reported as 8/28, the “mice with macroscopic vascular lesions (%)” value turned out to be 28%, the “Tissue staining (area % ± SD) CD31” value was 1.00 ± 0.6% and the “Tissue staining (area % ± SD) FVIII-RA” value worked out at 1.32 ± 1.2%. Further, in assay [1] (in comparison with mice inoculated with bFGF and not treated), the “angiogenesis and infiltration of the cells, microscopic examination of the inoculation sites” value is recorded as “marked reduction”. Besides, the proliferation result in assay [2] is reported as “do not interfere”. Further, the “development of tumour lesions (lesion size)” value in assay [3] is recorded as “inhibit”. Moreover, the “invasive capacity in response to bFGF” value in assay [4] was “inhibit”.
For the compound `CC(C)(C)NC(=O)[C@@H]1C[C@@H]2CCCC[C@@H]2CN1C[C@@H](O)[C@H](Cc1ccccc1)NC(=O)[C@H](CC(N)=O)NC(=O)c1ccc2ccccc2n1` [Saquinavir, saquinavir], the “capability of the KS cells to adhere to a substrate of fibronectin” value in the assay on KS cells is “do not inhibit”. In the assay with IL-1α, the “production of IL-1α by KS cells” value is on record as “reduced; also recorded: inhibited”. In addition, in assay [1], the “No. of mice with macroscopic vascular lesions/No. of inoculated mice” value is reported as 7/28, the “mice with macroscopic vascular lesions (%)” value stood at 25%, the “Tissue staining (area % ± SD) CD31” value stood at 0.83 ± 0.3% and the “Tissue staining (area % ± SD) FVIII-RA” value is reported as 1.13 ± 0.6%. In assay [2], the proliferation entry is recorded as “do not interfere”. For the same compound, the “development of tumour lesions (lesion size)” value in assay [3] is recorded as “inhibit”. Besides, the “invasive capacity in response to bFGF” value in assay [4] was “inhibit”.
